Values quoted from earlier work as cited in patent US20050014730A1, “Anti-fungal formulation of triterpene and essential oil” (priority 2003, published 2005).

Compound: C=C(C)[C@@H]1CC[C@]2(CO)CC[C@]3(C)[C@H](CC[C@@H]4[C@@]5(C)CC[C@H](O)C(C)(C)[C@@H]5CC[C@]43C)[C@@H]12 [betulin]
- solubility of betulin in water: about 0.15 mg/l
